Experiments:
Type in all cases: cell-based, human
[1] = tested on: self-renewal factors OCT4, BMI-1, c-MYC; experiment: Western blot of self-renewal factors in spheroids; details: 100 μM, HT-29
Protocol: (§1) Western Blotting Analysis. Western blot analysis was performed according to the standard protocol described in the literature. Briefly, HT-29 cells were plated in serum-free SCM in a low adhesion 6-well plate to obtain spheroids. Mature spheroids were treated on day 4 after plating, with vehicle or NSGMs for indicated time and cells were solubilized in lysis buffer (20 mM Na3PO4, 100 mM NaCl, 2 mM EDTA, 1% Nonidet P-40, 2.5 mM Na3VO4) containing protease (Roche) as well as phosphatase inhibitor cocktails (Sigma). Following centrifugation at 14,000 g for 15 min, the supernatant was used for Western blot analysis. In all analyses, protein concentration was determined by the Bio-Rad Protein Assay kit (Bio-Rad). Approximately 25-50 μg of protein was separated by polyacrylamide gel electrophoresis and was transferred to PVDF membrane (Bio-Rad). Blocking was done with 5% low fat milk powder for 1 hr followed by overnight incubation with primary antibody (dilution 1:1000): anti-CD44 (Cell Signaling), anti-EpCAM (Cell Signaling), anti-LGR5 (Origene), anti-CD133 ((Miltenyi Biotec), anti-CXCR4 (Abeam), anti-OCT4 (Cell Signaling), anti-BMI-1 (Millipore), anti-c-MYC (Millipore) and anti-CK20 (Abeam). This was followed by incubation with appropriate secondary antibody and protein bands were visualized using the enhanced chemiluminescence detection system and imaged with LAS-3000 Imaging System (FUJIFILM). Densitometry was determined by AIDA image analyzer software (Raytest) and results were calculated as relative intensity compared to control. All experiments were performed at least three times.

LGR5 = experiment: Flow cytometry analysis of CSC markers in HT-29 spheroids; details: 100 μM, vs vehicle-treated controls
Protocol: Flow Cytometry Analysis. Human colon cancer HT-29 cells, grown in spheroid or monolayer condition were treated with vehicle or NSGMs for 24 hours, were trypsinized and single cells were re-suspended at 10^6 cells/mL in PBS buffer. Cells were incubated with fluorophore conjugated antibody for 30 minutes at 4° C. and washed once with PBS buffer prior to analysis. Following antibody and dilution were used: LGR5-PE) (Dilution 1:50, Origene), DCLK1 (Dilution 1:33, Abeam). Cell sorting was performed using FACSAria™ II High-Speed Cell Sorter (BD Biosciences) and data were analyzed with FCS Express 4 Flow Cytometry software (De-Novo Software).

HT-29 cells = experiment: Primary (1°) colonosphere formation assay, HT-29 (Screen 1); details: 100 μM
Protocol: Primary (1°) Colonosphere Formation Assay. For primary sphere formation, cells were plated in non-treated, low adhesion, 96 wells plate at the concentration of 100 cells/100 μL/well in stem cell media (SCM) that consisted of DMEM:F12:AA (Gibco), supplemented with 1×B27 (Gibco), 20 ng/mL epidermal growth factor and 10 ng/mL fibroblast growth factor (Sigma). After four hour of incubation, vehicle (control) or NSGM at the desired concentrations were added to each well (at least in triplicates for each sample). On day five, numbers of spheres ranging from […] in diameter were counted using phase contrast microscope and percent inhibition was calculated compared to control.
In this screen, sulfated NSGMs that inhibit HT-29 growth under spheroid conditions, but not under monolayer conditions, were then assessed for retention of 2° and 3° spheroid growth inhibition profiles in the absence of NSGM. The latter screen is of particular importance as primary spheroid growth although selective for CSCs doses not distinguish between non self-renewing progenitors and self-renewing CSCs. […] These 11 NSGMs belonged to G2, G4, G11 and G12 scaffolds but only four of the six G2 molecules, one of the two G4, four of the seven G11 and two of the five G12 molecules satisfied the first screen.

[2] = tested on: HCT-116 cells, grown in spheroid condition; experiment: Apoptosis assay (annexin V/propidium iodide and acridine orange/ethidium bromide); details: annexin V labeling and acridine orange/ethidium bromide staining, 100 μM, 24 hours, vs vehicle
Protocol: Apoptosis Assay. Human colon cancer HCT-116 cells, grown in spheroid condition were treated with vehicle or NSGMs for 24 hours. Following which cells were trypsinized and single cells were re-suspended at 10^6 cells/mL in PBS buffer. Two different methods were used to assess apoptosis induction. In the first methods, cells were incubated with propidium iodide and Annexin V-APC (ebioscience) and flow cytometric analyses were performed as above. […] Briefly, a small volume of cell suspension was mounted on a glass slide and incubated with 1 μl of AO/EB solution and mixed gently just prior to microscopy and quantification. At least 500 cells in 10-15 fields were examined in each sample using Nikon ECLIPSE E800M fluorescence microscope using 20× objective. […] The data was expressed as apoptosis index=[([apoptotic cells (NSGMs)/total cells (NSGMs)]/[apoptotic cells (vehicle)/total cells (vehicle)]).

[3] = tested on: CSC markers CD44, CD133, EpCAM, LGR5, CXCR-4; experiment: Western blot of CSC markers in HT-29 spheroids; details: HT-29 spheroids, 100 μM, Western blot densitometry vs vehicle
Protocol: as §1

## O=c1cc(-c2ccc(OS(=O)(=O)O)c(OS(=O)(=O)O)c2)oc2cc(OS(=O)(=O)O)cc(OS(=O)(=O)O)c12 [G1.4]
[1]
  BMI-1 expression: no such changes
  c-MYC expression: no such changes
LGR5
  reduction in LGR5 (hi) cells: < 15%
HT-29 cells
  Screen 1 outcome (spheroid versus monolayer growth inhibition): completely failed
[2]
  induction of apoptosis in spheroid cells: no such effects
[3]
  reduction of expression of CSC markers (CD44, CD133, EpCAM, LGR5, CXCR-4): no effect
